# Measured values reported in PMC7918798, “Coumarins from Seseli devenyense Simonk.: Isolation by Liquid–Liquid Chromatography and Potential Anxiolytic Activity Using an In Vivo Zebrafish Larvae Model” (International Journal of Molecular Sciences, 2021).
# “Also recorded” adds a separate entry of the source.
# Assays:
# 5-dpf zebrafish larvae [1] = assay: Zebrafish larvae light/dark transition challenge: locomotor activity and thigmotaxis (anxiolytic activity assay, Phase 2); assay type: in vivo, Danio rerio
# Experimental: (§1) The research protocol was adopted after Schnorr et al. (2012). The anxiolytic activity was evaluated in 24-well plates. The inner and outer zones of the well were delineated according to Schnorr et al. (2012). […] It could be also described as decreasing thigmotaxis. 1% DMSO in E3 solution was used as the negative control, 10 μM diazepam was used as the positive control. 32 larvae were used for each concentration.
# (§2) The experimental procedure was divided into three stages: • (a) Preincubation: larvae were pre-incubated in a 1500 μL solution of tested compounds in individual wells of a 24-well plate at 28.5 °C, in dark, for 30 min. • (b) Acclimatization (min 0–10): plates were placed in an automated video recording bench station (ViewPoint, Lyon, France). Larvae were allowed to acclimatize to the test apparatus for 10 min. During this period, lights were kept on. • (c) Visual motor challenge (min 11–95): this stage experiment was divided into two phases: Phase 1—continuous illumination: larvae were subjected to continuous light for 40 min, with the purpose to determine the spontaneous locomotor activity and thigmotaxis behavior (before applying the factor causing the anxiety). Phase 2—light/dark transition: larvae were subjected to three cycles, each involving the 10-min lighting phase (continuous light) and the 5-min dark phase (anxiogenic factor).
# 5-dpf zebrafish larvae [2] = assay: Zebrafish larvae 40 min continuous illumination: spontaneous locomotor activity and thigmotaxis (Phase 1); assay type: in vivo, Danio rerio; conditions: 40 min continuous illumination vs DMSO-treated control group; diazepam 10 µM
# Experimental: as §1, §2
# [3] = dark phase vs DMSO-treated group in dark phase, diazepam 10 μM
# [4] = dark phase vs light phase within same group, diazepam 10 μM
# [5] = dark phase vs light phase, concentration not stated
# [6] = light phase vs DMSO-treated group in light phase, diazepam 10 μM
smiles,measurement,setting,value
"CN1C(=O)CN=C(c2ccccc2)c2cc(Cl)ccc21 [diazepam, reference compound]",locomotor activity (average distance moved per 1-min time bin),5-dpf zebrafish larvae [1]; [3],significant decreases; also recorded: decrease
same,percentage of distance moved in central area,5-dpf zebrafish larvae [1]; [3],significant increases
same,percentage of time spent in central area,5-dpf zebrafish larvae [1]; [3],significant increases
same,percentage of distance moved in central area,5-dpf zebrafish larvae [1]; [4],increase
same,percentage of time spent in central area,5-dpf zebrafish larvae [1]; [4],increase
same,distance moved by the larvae in the central arena,5-dpf zebrafish larvae [1]; [5],significantly increased
same,time spent in the central area,5-dpf zebrafish larvae [1]; [5],significantly increased
same,percentage of distance moved in central area,5-dpf zebrafish larvae [1]; [6],significant increase
same,percentage of time spent in central area,5-dpf zebrafish larvae [1]; [6],significant increase
same,percentage of distance moved in the central arena,5-dpf zebrafish larvae [2],increased
same,percentage of time spent in the central arena,5-dpf zebrafish larvae [2],increase
